pIC50: −log10 of the molar value.
How the values were obtained:
Experiment in all cases: kinobeads assay with mass spectrometry detection of kinases (kinase selectivity profile)
Format in all cases: binding
kinases (kinome) [1] = biological target: T1, kinases (kinome) (Homo sapiens, UniProt O60885); settings: BRD4 (Atypical), IPI00440727
T1 construct: determined in kinobeads assays with mass spectrometry detection of kinases as described previously; endogenous in cells; host or cells: cell lysate
Text: (§1) The protein kinase complement of the human genome (the kinome) was described previously (Manning et al., 2002. Science 298(5600):1912-1934). Sequence accession numbers are defined by the International Protein Index (IPI) (Kersey et al., 2004. Proteomics 4(7):1985-1988).

kinases (kinome) [2] = biological target: T2, kinases (kinome) (Homo sapiens, UniProt O00444); settings: PLK4 (Other), IPI00410344
T2 construct: determined in kinobeads assays with mass spectrometry detection of kinases as described previously; endogenous in cells; host or cells: cell lysate
T2 sequence (O00444 1-970): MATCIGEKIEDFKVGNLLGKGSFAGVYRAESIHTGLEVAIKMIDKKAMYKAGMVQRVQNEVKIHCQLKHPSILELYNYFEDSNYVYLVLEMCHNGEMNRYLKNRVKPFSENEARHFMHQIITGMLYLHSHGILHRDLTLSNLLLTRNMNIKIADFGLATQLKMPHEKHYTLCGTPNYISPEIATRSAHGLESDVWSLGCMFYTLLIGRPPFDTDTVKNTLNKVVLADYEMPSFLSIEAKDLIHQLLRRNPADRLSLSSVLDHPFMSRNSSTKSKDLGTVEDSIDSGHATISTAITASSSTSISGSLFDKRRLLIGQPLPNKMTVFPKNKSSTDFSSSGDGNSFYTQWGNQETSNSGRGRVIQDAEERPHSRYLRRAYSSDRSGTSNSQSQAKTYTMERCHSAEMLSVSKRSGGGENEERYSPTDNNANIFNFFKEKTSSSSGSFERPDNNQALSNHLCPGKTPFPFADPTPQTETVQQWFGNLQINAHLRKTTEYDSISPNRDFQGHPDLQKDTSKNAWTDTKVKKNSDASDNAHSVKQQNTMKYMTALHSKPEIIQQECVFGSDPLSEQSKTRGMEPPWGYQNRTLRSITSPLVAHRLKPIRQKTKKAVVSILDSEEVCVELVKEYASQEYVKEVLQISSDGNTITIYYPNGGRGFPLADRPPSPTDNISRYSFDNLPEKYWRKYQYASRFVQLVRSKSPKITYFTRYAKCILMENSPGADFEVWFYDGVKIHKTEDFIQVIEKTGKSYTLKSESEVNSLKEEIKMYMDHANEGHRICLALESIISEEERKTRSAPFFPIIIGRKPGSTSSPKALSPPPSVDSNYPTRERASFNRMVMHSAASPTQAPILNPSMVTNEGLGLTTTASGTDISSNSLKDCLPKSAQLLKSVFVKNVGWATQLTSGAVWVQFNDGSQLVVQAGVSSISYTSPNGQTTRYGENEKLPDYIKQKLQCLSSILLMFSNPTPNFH
Text: as §1

kinases (kinome) [3] = biological target: T3, kinases (kinome) (Homo sapiens, UniProt Q86YV5); settings: SgK223 (Other), IPI00739386
T3 construct: determined in kinobeads assays with mass spectrometry detection of kinases as described previously; endogenous in cells; host or cells: cell lysate
T3 sequence (Q86YV5 1-1406): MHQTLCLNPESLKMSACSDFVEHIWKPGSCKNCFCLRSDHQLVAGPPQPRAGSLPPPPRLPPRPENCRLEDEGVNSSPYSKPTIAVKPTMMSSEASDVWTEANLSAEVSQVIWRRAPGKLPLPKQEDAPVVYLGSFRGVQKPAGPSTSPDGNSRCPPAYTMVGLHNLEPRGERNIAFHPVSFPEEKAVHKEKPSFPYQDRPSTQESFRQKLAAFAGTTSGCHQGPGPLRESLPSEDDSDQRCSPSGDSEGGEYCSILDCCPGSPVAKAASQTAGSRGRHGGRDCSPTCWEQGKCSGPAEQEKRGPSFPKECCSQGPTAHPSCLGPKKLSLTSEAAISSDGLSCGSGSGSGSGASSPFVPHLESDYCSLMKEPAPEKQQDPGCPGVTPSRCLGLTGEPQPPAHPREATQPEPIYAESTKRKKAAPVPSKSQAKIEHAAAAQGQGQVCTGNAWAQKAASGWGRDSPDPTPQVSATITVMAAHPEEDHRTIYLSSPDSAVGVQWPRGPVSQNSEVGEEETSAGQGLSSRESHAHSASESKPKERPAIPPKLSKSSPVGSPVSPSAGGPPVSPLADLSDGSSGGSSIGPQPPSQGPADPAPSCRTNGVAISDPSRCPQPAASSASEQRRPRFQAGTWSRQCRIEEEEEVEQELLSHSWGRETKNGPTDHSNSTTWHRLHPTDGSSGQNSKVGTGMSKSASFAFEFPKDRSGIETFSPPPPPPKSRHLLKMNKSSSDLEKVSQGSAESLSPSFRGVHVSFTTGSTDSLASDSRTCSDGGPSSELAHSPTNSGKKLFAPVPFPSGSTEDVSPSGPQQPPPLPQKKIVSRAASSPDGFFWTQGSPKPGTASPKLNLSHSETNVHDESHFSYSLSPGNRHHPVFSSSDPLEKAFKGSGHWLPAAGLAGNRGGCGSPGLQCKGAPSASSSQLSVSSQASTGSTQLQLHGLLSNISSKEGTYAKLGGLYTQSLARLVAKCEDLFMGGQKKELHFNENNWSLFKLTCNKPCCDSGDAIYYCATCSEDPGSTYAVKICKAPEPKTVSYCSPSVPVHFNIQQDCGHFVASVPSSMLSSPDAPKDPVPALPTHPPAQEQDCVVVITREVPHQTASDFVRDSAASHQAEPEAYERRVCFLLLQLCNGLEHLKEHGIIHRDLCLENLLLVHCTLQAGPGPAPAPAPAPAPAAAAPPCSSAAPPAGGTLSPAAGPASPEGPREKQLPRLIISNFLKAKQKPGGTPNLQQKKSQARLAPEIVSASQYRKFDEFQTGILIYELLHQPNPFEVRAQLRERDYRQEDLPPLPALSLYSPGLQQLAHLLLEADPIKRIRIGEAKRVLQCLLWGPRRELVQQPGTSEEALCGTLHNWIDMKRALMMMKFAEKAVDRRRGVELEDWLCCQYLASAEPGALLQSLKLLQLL
Text: as §1

Row | Compound | pIC50 (kinases (kinome) [1]) | pIC50 (kinases (kinome) [2]) | pIC50 (kinases (kinome) [3])
1 | C[C@H]1COCCN1c1nc(-c2ccc(NC(=O)NC3CC3)cc2)cc(-c2ccccc2S(C)(=O)=O)n1 [Example 4, (S)-1-cyclopropyl-3-(4-(2-(3-methylmorpholino)-6-(2-(methylsulfonyl)phenyl)pyrimidin-4-yl)phenyl)urea] | < 5.00 | < 5.00 | 
2 | C[C@H]1COCCN1c1cc(-c2ccccc2S(C)(=O)=O)nc(-c2ccc(NC(=O)NC3CC3)cc2)n1 [Example 6, (S)-1-cyclopropyl-3-(4-(4-(3-methylmorpholino)-6-(2-(methylsulfonyl)phenyl)pyrimidin-2-yl)phenyl)urea] | < 5.00 | < 5.00 | < 5.00
3 | CCNC(=O)Nc1ccc(-c2cc(-c3ccccc3C#N)nc(N3CCOC[C@@H]3C)n2)cc1 [Example 8, (S)-1-(4-(6-(2-cyanophenyl)-2-(3-methylmorpholino)pyrimidin-4-yl)phenyl)-3-ethylurea] | < 5.00 | < 5.00 | < 5.00
4 | C[C@H]1COCCN1c1nc(-c2ccc(NC(=O)NC3CC3)cc2)cc(-c2cc(F)ccc2S(C)(=O)=O)n1 [Example 40, (S)-1-cyclopropyl-3-(4-(6-(5-fluoro-2-(methylsulfonyl)phenyl)-2-(3-methylmorpholino)pyrimidin-4-yl)phenyl)urea] | < 5.00 | < 5.00 | < 5.00
5 | C[C@H]1COCCN1c1cc(-c2ccccn2)nc(-c2ccc(NC(=O)NCCO)cc2)n1 [Example 43, (S)-1-(2-hydroxyethyl)-3-(4-(4-(3-methylmorpholino)-6-(pyridin-2-yl)pyrimidin-2-yl)phenyl)urea] | < 5.00 | < 5.00 | < 5.00
6 | C[C@H]1COCCN1c1nc(-c2ccc(NC(=O)NC3CC3)cc2)cc(-c2cccnc2S(C)(=O)=O)n1 [Example 46, (S)-1-cyclopropyl-3-(4-(2-(3-methylmorpholino)-6-(2-(methylsulfonyl)pyridin-3-yl)pyrimidin-4-yl)phenyl)urea] | < 5.00 | < 5.00 | < 5.00
7 | C[C@H]1COCCN1c1nc(-c2ccc(NC(=O)N[C@H]3CCC[C@@H]3O)cc2)cc(-c2cc(F)ccc2S(C)(=O)=O)n1 [Example 76, 1-(4-(6-(5-fluoro-2-(methylsulfonyl)phenyl)-2-((S)-3-methylmorpholino)pyrimidin-4-yl)phenyl)-3-((1S,2S)-2-hydroxycyclopentyl)urea] | < 5.00 | < 5.00 | < 5.00
